Earlier results on four compounds are cited in patent publication US11331258B2, “Method for dyeing keratinous material, comprising the use of an organosilicon compound, an oligoalkylsiloxane and a dyeing compound” (Henkel AG & Co. KGaA, priority 2019, dated 2022).

Read-outs that look alike come from different tables or passages of the source.

Take `O=S(=O)([O-])c1ccc(N=Nc2c(O)ccc3ccccc23)cc1.[Na+]` [Acid Orange 7, sodium salt of 4-[(2-hydroxy-1-naphthyl)azo]benzene sulphonate]: the solubility in water result (25° C.) is listed as “more than 7 g/L”.
With `O=C([O-])C1=NN(c2ccc(S(=O)(=O)[O-])cc2)C(=O)C1N=Nc1ccc(S(=O)(=O)[O-])cc1.[Na+].[Na+].[Na+]` (stereo not shown) [Acid Yellow 23, trisodium salt of 4,5-dihydro-5-oxo-1-(4-sulfophenyl)-4-((4-sulfophenyl)azo)-1H-pyrazole-3-carboxylic acid], for the setting “at about 25° C.”, the solubility in water result is given as “highly soluble”.
`Nc1cc(S(=O)(=O)[O-])cc2cc(S(=O)(=O)[O-])c(N=Nc3ccccc3)c(O)c12.[Na+].[Na+]` [Acid Red 33, diantrium salt of 5-amino-4-hydroxy-3-(phenylazo)-naphthalene-2,7-disulphonate]: the solubility in water result (25° C.) is listed as “about 2.5 g/L”.
As for `CCN(Cc1cccc(S(=O)(=O)[O-])c1)c1ccc(C(=C2C=CC(=[N+](CC)Cc3cccc(S(=O)(=O)[O-])c3)C=C2)c2ccccc2S(=O)(=O)[O-])cc1.[Na+].[Na+]` [Acid Blue 9], the solubility in water entry (25° C.) is given as “more than 20 % by weight”.
